Reference: the NIST ThermoML archive (doi:10.1021/acs.jced.8b01004)

Assays:
[1] = xn = mol fraction of the nth substance listed; conditions: 100 kPa, Liquid; for viscosity: Falling or rolling sphere viscometry; for mass density: Vibrating tube method
[2] = 100 kPa, Liquid; for viscosity: Falling or rolling sphere viscometry; for mass density: Vibrating tube method

C1CC[C@H]2CCCC[C@H]2C1 [cis-decahydronaphthalene] + C1CC[C@H]2CCCC[C@@H]2C1
[1], x1 = 0.5
Conditions	mass density [kg/m3]	viscosity [mPa·s]
293.15 K	880.41	2.488
298.15 K	876.64	2.255
303.15 K	872.86	2.054
308.15 K	869.1	1.88
313.15 K	865.33	1.727
318.15 K	861.56	1.592
323.15 K	857.8	1.473
328.15 K	854.02	1.367
333.15 K	850.25	1.272
338.15 K	846.47	1.188
343.15 K	842.68	1.111

OC1CCCC1 [cyclopentanol]
[2]
Conditions	mass density [kg/m3]	viscosity [mPa·s]
293.15 K	946.99	11.88
298.15 K	943.05	9.722
303.15 K	939.05	8.068
308.15 K	935.01	7.077
313.15 K	930.91	6.04
318.15 K	926.75	5.19
323.15 K	922.53	4.441
328.15 K	918.24	3.83
333.15 K	913.89	3.312
338.15 K	909.48	2.886
343.15 K	904.99	2.53

CC1CCCCC1 [methylcyclohexane]
[2]
Conditions	mass density [kg/m3]	viscosity [mPa·s]
293.15 K	769.35	0.735
298.15 K	765	0.689
303.15 K	760.65	0.647
308.15 K	756.3	0.611
313.15 K	751.93	0.577
318.15 K	747.56	0.547
323.15 K	743.16	0.519
328.15 K	738.74	0.495
333.15 K	734.29	0.473
338.15 K	729.82	0.453
343.15 K	725.32	0.434

CC1CCCCC1 [methylcyclohexane] + OC1CCCC1
[1], x1 = 1
Conditions	mass density [kg/m3]	viscosity [mPa·s]
293.15 K	769.35	0.735
298.15 K	765	0.689
303.15 K	760.65	0.647
308.15 K	756.3	0.611
313.15 K	751.93	0.577
318.15 K	747.56	0.547
323.15 K	743.16	0.519
328.15 K	738.74	0.495
333.15 K	734.29	0.473
338.15 K	729.82	0.453
343.15 K	725.32	0.434
